Reference: PubChem BioAssay AID330 (DTP/NCI, 2004)
“And” between values parts separate entries of the source, which are not always exact repeats. Equal values may be shown once. Toxic doses and inconclusive results are not listed. Peptide text beside a SMILES is read from it.

Tested on: P388 leukemia ip, CD2F1 mice, survival T/C
Test: NCI In Vivo Anticancer Drug Screen. Data for tumor model P388 Leukemia (intraperitoneal) in CD2F1 (CDF1) mice
Details: endpoint: median survival time, higher = longer survival
Procedure, shortened: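 Mice carrying the transplanted tumor received test compound or vehicle. Survival was recorded in each group, and the value is the treated-group measurement divided by that of the vehicle-treated control group.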

[1] = dose: 50.0 mg/kg/injection, schedule: Q01DX005 (ip), vehicle: Klucel (hydroxypropylcellulose) (HPC)
[2] = dose: 100.0 mg/kg/injection, schedule: Q01DX005 (ip), vehicle: Klucel (hydroxypropylcellulose) (HPC)
[3] = dose: 200.0 mg/kg/injection, schedule: Q01DX005 (ip), vehicle: Klucel (hydroxypropylcellulose) (HPC)
[4] = dose: 50.0 mg/kg/injection, schedule: Q01DX005 (ip), vehicle: saline with Tween-80
[5] = dose: 100.0 mg/kg/injection, schedule: Q01DX005 (ip), vehicle: saline with Tween-80
[6] = dose: 200.0 mg/kg/injection, schedule: Q01DX005 (ip), vehicle: saline with Tween-80
[7] = dose: 50.0 mg/kg/injection, schedule: Q01DX009 (ip), vehicle: saline with Tween-80
[8] = dose: 100.0 mg/kg/injection, schedule: Q01DX009 (ip), vehicle: saline with Tween-80
[9] = dose: 200.0 mg/kg/injection, schedule: Q01DX009 (ip), vehicle: saline with Tween-80
[10] = dose: 60.0 mg/kg/injection, schedule: Q01DX005 (ip), vehicle: saline with Tween-80
[11] = dose: 120.0 mg/kg/injection, schedule: Q01DX005 (ip), vehicle: saline with Tween-80
[12] = dose: 12.5 mg/kg/injection, schedule: Q01DX005 (ip), vehicle: Klucel (hydroxypropylcellulose) (HPC)
[13] = dose: 25.0 mg/kg/injection, schedule: Q01DX005 (ip), vehicle: Klucel (hydroxypropylcellulose) (HPC)
[14] = dose: 15.0 mg/kg/injection, schedule: Q01DX005 (ip), vehicle: saline with Tween-80
[15] = dose: 30.0 mg/kg/injection, schedule: Q01DX005 (ip), vehicle: saline with Tween-80

In the case of COc1ccc(CC(C#N)c2ccc(OC)cc2)cc1 (centres undefined), the T/C (dose: 50.0 mg/kg/injection, schedule: Q01DX009 (ip), vehicle: Klucel (hydroxypropylcellulose) (HPC)) is reported as 111 % of control and 96 % of control, the T/C (dose: 100.0 mg/kg/injection, schedule: Q01DX009 (ip), vehicle: Klucel (hydroxypropylcellulose) (HPC)) is reported as 100 % of control and 96 % of control and the T/C (dose: 200.0 mg/kg/injection, schedule: Q01DX009 (ip), vehicle: Klucel (hydroxypropylcellulose) (HPC)) is reported as 99 % of control and 93 % of control.
For O=c1nc2oc(-c3ccccc3)cn2c(=O)n1-c1ncc(-c2ccccc2)o1, the T/C [1] was 97 % of control, the T/C [2] was 100 % of control and the T/C [3] was 105 % of control.
C=CCNC(=O)/C=C\C(=O)O was tested, and the T/C (dose: 37.5 mg/kg/injection, schedule: Q01DX009 (ip), vehicle: saline with Tween-80) was 98 % of control, the T/C (dose: 75.0 mg/kg/injection, schedule: Q01DX009 (ip), vehicle: saline with Tween-80) was 94 % of control and the T/C (dose: 150.0 mg/kg/injection, schedule: Q01DX009 (ip), vehicle: saline with Tween-80) was 94 % of control. For the same molecule, the T/C (dose: 300.0 mg/kg/injection, schedule: Q01DX009 (ip), vehicle: saline with Tween-80) was 100 % of control.
Cc1c2cc(Cl)ccc2c(CSC(=N)N)c2ccc3ccccc3c12 was tested, and the T/C (dose: 50.0 mg/kg/injection, schedule: Q04DX002 (ip), vehicle: Klucel (hydroxypropylcellulose) (HPC)) was 100 % of control, the T/C (dose: 100.0 mg/kg/injection, schedule: Q04DX002 (ip), vehicle: Klucel (hydroxypropylcellulose) (HPC)) was 102 % of control and the T/C (dose: 200.0 mg/kg/injection, schedule: Q04DX002 (ip), vehicle: Klucel (hydroxypropylcellulose) (HPC)) was 107 % of control.
For N#C/C=C/C#N, the T/C (dose: 0.15 mg/kg/injection, schedule: Q01DX009 (ip), vehicle: saline) was 100 % of control, the T/C (dose: 0.3 mg/kg/injection, schedule: Q01DX009 (ip), vehicle: saline) was 109 % of control and the T/C (dose: 0.6 mg/kg/injection, schedule: Q01DX009 (ip), vehicle: saline) was 113 % of control.
For CN(C)CC(CN(C)C)C(=O)c1ccc(OC2OC(CO)C(O)C(O)C2O)cc1 (centres undefined), the T/C (dose: 60.0 mg/kg/injection, schedule: Q01DX005 (ip), vehicle: saline) was 103 % of control, the T/C (dose: 120.0 mg/kg/injection, schedule: Q01DX005 (ip), vehicle: saline) was 99 % of control and the T/C (dose: 240.0 mg/kg/injection, schedule: Q01DX005 (ip), vehicle: saline) was 105 % of control.
For Cc1ccc(N2CCOS(=O)OCC2)cc1, the T/C [4] was 101 % of control, the T/C [5] was 98 % of control and the T/C [6] was 101 % of control.
In the case of CSCCc1nc(C)oc1C, the T/C [7] is reported as 94 % of control, the T/C [8] is reported as 100 % of control and the T/C [9] is reported as 102 % of control.
CC(=O)c1ccc2oc(C(C)=O)cc2c1 was tested, and the T/C (dose: 2.5 mg/kg/injection, schedule: Q01DX009 (ip), vehicle: saline with Tween-80) was 97 % of control and the T/C (dose: 5.0 mg/kg/injection, schedule: Q01DX009 (ip), vehicle: saline with Tween-80) was 96 % of control.
For N/C(=N\OC1(c2ccccc2)OC(=O)C(=O)/C1=C(/O)c1ccccc1)c1ccccc1 (centres undefined), the T/C [10] was 102 % of control and the T/C [11] was 100 % of control.
With Nc1ccn([C@@H](C=O)C[C@@H](C=O)CO)c(=O)n1 the T/C (dose: 25.0 mg/kg/injection, schedule: Q01DX005 (ip), vehicle: saline) was 112 % of control, the T/C (dose: 200.0 mg/kg/injection, schedule: Q01DX005 (ip), vehicle: saline) was 150 % of control and the T/C (dose: 400.0 mg/kg/injection, schedule: Q01DX005 (ip), vehicle: saline) was 166 % of control.
CCCCCCCCCCCC(=O)NCC(=O)NC1C(C)OC(Nc2ncnc3nc[nH]c23)C(O)C1O (centres undefined) was tested, and the T/C (dose: 0.25 mg/kg/injection, schedule: Q01DX009 (ip), vehicle: other) was 113 % of control and the T/C (dose: 0.5 mg/kg/injection, schedule: Q01DX009 (ip), vehicle: other) was 109 % of control.
In the case of COc1cc(O)c(C(C)c2ccccc2)cc1N=NC(N)=O (centres undefined), the T/C (dose: 6.25 mg/kg/injection, schedule: Q01DX005 (ip), vehicle: saline with Tween-80) is reported as 96 % of control, the T/C (dose: 12.5 mg/kg/injection, schedule: Q01DX005 (ip), vehicle: saline with Tween-80) is reported as 90 % of control and the T/C (dose: 25.0 mg/kg/injection, schedule: Q01DX005 (ip), vehicle: saline with Tween-80) is reported as 89 % of control.
With O=C(O)c1c(Cl)nc2n1CCS2 the T/C (dose: 50.0 mg/kg/injection, schedule: Q01DX001 (ip), vehicle: Klucel (hydroxypropylcellulose) (HPC)) was 97 % of control, the T/C (dose: 100.0 mg/kg/injection, schedule: Q01DX001 (ip), vehicle: Klucel (hydroxypropylcellulose) (HPC)) was 101 % of control and the T/C (dose: 200.0 mg/kg/injection, schedule: Q01DX001 (ip), vehicle: Klucel (hydroxypropylcellulose) (HPC)) was 104 % of control.
With CCC[CH2][Sn]([CH2]CCC)([CH2]CCC)[CH2]CC[N+](C)(C)C the T/C (dose: 0.78 mg/kg/injection, schedule: Q01DX009 (ip), vehicle: saline) was 105 % of control, the T/C (dose: 1.56 mg/kg/injection, schedule: Q01DX009 (ip), vehicle: saline) was 105 % of control and the T/C (dose: 3.12 mg/kg/injection, schedule: Q01DX009 (ip), vehicle: saline) was 101 % of control.
With C[N+](C)(C)c1ccc2c(c1)CCC/C2=N\N the T/C (dose: 1.56 mg/kg/injection, schedule: Q04DX003 (ip), vehicle: saline) was 100 % of control, the T/C (dose: 3.13 mg/kg/injection, schedule: Q04DX003 (ip), vehicle: saline) was 100 % of control and the T/C (dose: 6.25 mg/kg/injection, schedule: Q04DX003 (ip), vehicle: saline) was 97 % of control.
With C=C(Cl)C(=NC(C)(C)C)N(CC)CC the T/C [12] was 104 % of control, the T/C [13] was 104 % of control and the T/C [1] was 107 % of control and 110 % of control.
For CC(O)C(N)C(=O)NC(Cc1ccccc1)C(N)=O (stereo not drawn) (H-Thr-Phe-NH2; configuration not given here), the T/C [4] was 101 % of control, the T/C [5] was 100 % of control and the T/C [6] was 103 % of control.
For Cc1cc(=O)[nH]c2nc3ccccc3n12, the T/C [7] was 95 % of control, the T/C [8] was 96 % of control and the T/C [9] was 100 % of control. The T/C (dose: 400.0 mg/kg/injection, schedule: Q01DX009 (ip), vehicle: saline with Tween-80) was 104 % of control.
With ClCSc1nc2cc(Cl)ccc2s1 the T/C [7] was 95 % of control, the T/C [8] was 100 % of control and the T/C [9] was 95 % of control.
CN(C)CCN1CC2Cc3ccccc3C1c1ccccc12 (centres undefined) was tested, and the T/C (dose: 100.0 mg/kg/injection, schedule: Q04DX003 (ip), vehicle: Klucel (hydroxypropylcellulose) (HPC)) was 102 % of control and the T/C (dose: 200.0 mg/kg/injection, schedule: Q04DX003 (ip), vehicle: Klucel (hydroxypropylcellulose) (HPC)) was 102 % of control.
For Cc1cc(O)c(C(=O)O)c2c1CCC(C1(C)CO1)C2 (centres undefined), the T/C (dose: 1.56 mg/kg/injection, schedule: Q01DX005 (ip), vehicle: Klucel (hydroxypropylcellulose) (HPC)) was 100 % of control, the T/C (dose: 3.12 mg/kg/injection, schedule: Q01DX005 (ip), vehicle: Klucel (hydroxypropylcellulose) (HPC)) was 101 % of control and the T/C (dose: 6.25 mg/kg/injection, schedule: Q01DX005 (ip), vehicle: Klucel (hydroxypropylcellulose) (HPC)) was 100 % of control. The T/C [12] was 105 % of control and the T/C [13] was 107 % of control.
In the case of NCCNCC(O)CO (centres undefined), the T/C (dose: 50.0 mg/kg/injection, schedule: Q01DX005 (ip), vehicle: saline + Tween-80 + alcohol) is reported as 102 % of control, the T/C (dose: 100.0 mg/kg/injection, schedule: Q01DX005 (ip), vehicle: saline + Tween-80 + alcohol) is reported as 102 % of control and the T/C (dose: 200.0 mg/kg/injection, schedule: Q01DX005 (ip), vehicle: saline + Tween-80 + alcohol) is reported as 99 % of control.
For CSc1nc(NC2OC(CO)C(O)C(O)C2O)c(Cl)c(=O)n1C (centres undefined), the T/C [14] was 94 % of control, the T/C [15] was 95 % of control and the T/C [10] was 91 % of control and 97 % of control. For the same molecule, the T/C [11] was 100 % of control.
In the case of CN(C)CCCn1ncc(Sc2cc([N+](=O)[O-])ccc2N)c(Cl)c1=O, the T/C [14] is reported as 95 % of control, the T/C [15] is reported as 94 % of control and the T/C [10] is reported as 99 % of control and 107 % of control and 94 % of control. The T/C [11] was 93 % of control and the T/C (dose: 240.0 mg/kg/injection, schedule: Q01DX005 (ip), vehicle: saline with Tween-80) was 89 % of control.
CC1(C)CC2C[C@H]3CC[C@@H]4O[C@]34C2[C@H]1OC(=O)/C=C/c1ccccc1 (some centres undefined) was tested, and the T/C (dose: 74.5 mg/kg/injection, schedule: Q01DX001 (ip), vehicle: saline with Tween-80) was 100 % of control, the T/C (dose: 149.0 mg/kg/injection, schedule: Q01DX001 (ip), vehicle: saline with Tween-80) was 99 % of control and the T/C (dose: 298.0 mg/kg/injection, schedule: Q01DX001 (ip), vehicle: saline with Tween-80) was 99 % of control.
In the case of O=C(c1ccccc1Cl)n1oc2ccccc2c1=O, the T/C [1] is reported as 97 % of control, the T/C [2] is reported as 110 % of control and the T/C [3] is reported as 106 % of control.
